Data taken from PubChem BioAssay (NCI).
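Five compound concentrations were applied to cells in 96-well plates for 48 hours; endpoints were derived by simple linear interpolation of the resulting dose-response curve. GI50: concentration for 50% inhibition of growth. Definition used: TGI = concentration required for complete inhibition of growth.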

Tests used:
Assay in all cases: growth of human tumour cells (NCI), 48 h
786-0 renal = tested on: 786-0 renal
SR leukemia = tested on: SR leukemia
OVCAR-3 ovarian = tested on: OVCAR-3 ovarian
RXF 393 renal = tested on: RXF 393 renal
M14 melanoma = tested on: M14 melanoma
CCRF-CEM leukemia = tested on: CCRF-CEM leukemia
TK-10 renal = tested on: TK-10 renal
UO-31 renal = tested on: UO-31 renal
HOP-92 NSCLC = tested on: HOP-92 NSCLC
SNB-75 CNS = tested on: SNB-75 CNS

| Structure (SMILES) | GI50 (786-0 renal) [µM] | TGI (786-0 renal) [µM] | GI50 (SR leukemia) [µM] | TGI (SR leukemia) [µM] | GI50 (OVCAR-3 ovarian) [µM] | TGI (OVCAR-3 ovarian) [µM] | GI50 (RXF 393 renal) [µM] | TGI (RXF 393 renal) [µM] | GI50 (M14 melanoma) [µM] | TGI (M14 melanoma) [µM] | GI50 (CCRF-CEM leukemia) [µM] | TGI (CCRF-CEM leukemia) [µM] | GI50 (TK-10 renal) [µM] | TGI (TK-10 renal) [µM] | GI50 (UO-31 renal) [µM] | TGI (UO-31 renal) [µM] | TGI (HOP-92 NSCLC) [µM] | TGI (SNB-75 CNS) [µM] | GI50 (SNB-75 CNS) [µM] | GI50 (HOP-92 NSCLC) [µM] |
| --- | --- | --- | --- | --- | --- | --- | --- | --- | --- | --- | --- | --- | --- | --- | --- | --- | --- | --- | --- | --- |
| Cc1ccc(NC2=C(Cl)C(=O)N(Cc3ccccc3)C2=O)cc1O | 22.6 | > 100 | 6.91 | > 100 | 20.6 | 70 | 52 | > 100 | 51.4 | > 100 | 29.6 | > 100 | 31.3 | > 100 | 82.2 | > 100 | – | – | – | – |
| CC(C)=CC(=O)C1c2cccc(O)c2C(=O)c2c(O)cc(C)cc21 (stereo unspecified) | – | 16.1 | – | – | – | 3.7 | – | 4.39 | – | 10.1 | – | > 100 | – | 7.83 | – | 3.74 | 7.83 | 4.68 | – | – |
| NC(=O)c1sc(-n2cnc3ccccc32)cc1OCc1ccccc1Br | 11.1 | > 25 | 3.09 | > 25 | 1.55 | 17.6 | 1.73 | > 25 | 5.71 | > 25 | 1.34 | > 25 | 11.3 | > 25 | 15.4 | > 25 | – | > 25 | 10.2 | – |
| O=C(O)c1ccccc1[Se][Se]c1ccccc1C(=O)O | – | > 100 | – | – | – | > 100 | – | > 100 | – | > 100 | – | > 100 | – | > 100 | – | 28.3 | > 100 | > 100 | – | – |
| NC(Cc1c[nH]c2c(O)cccc12)C(=O)O (stereo unspecified) | > 100 | > 100 | > 100 | > 100 | > 100 | > 100 | – | – | > 100 | > 100 | > 100 | > 100 | > 100 | > 100 | > 100 | > 100 | > 100 | > 100 | > 100 | > 100 |
| O=C(Nc1ccccc1)NS(=O)(=O)c1ccc(-n2nc3c(c2-c2cccs2)Cc2ccccc2-3)cc1 | 17.6 | 35.2 | – | – | 21.8 | > 100 | 85.3 | > 100 | 25 | 47 | 13.6 | > 100 | 4.99 | 30.8 | 32.3 | > 100 | > 100 | > 100 | 70.4 | 12.3 |
| CN(C)CC[N+]1=Nc2cccc3cccc(c23)N1 | – | > 100 | – | 40.9 | – | > 100 | – | – | – | > 100 | – | > 67.3 | – | > 100 | – | > 60.9 | > 100 | > 100 | – | – |
| Cn1c2ccccc2c2c(Nc3ccccc3)c3ccccc3nc21 | 17.3 | 41.8 | – | – | – | – | – | – | 15.9 | 33.3 | – | – | 15.8 | 43.8 | 51.8 | > 100 | 56.5 | > 100 | 26.5 | 13.9 |
| COc1ccc2c3c1C(=O)CCCC3CO2 (stereo unspecified) | – | > 100 | – | – | – | > 100 | – | > 100 | – | > 100 | – | > 100 | – | > 100 | – | > 100 | > 100 | > 100 | – | – |
| CN/N=C(/Cc1occc(=O)c1O)C(=O)Nc1ccccc1C | – | > 100 | – | > 100 | – | > 100 | – | – | – | > 100 | – | > 100 | – | > 100 | – | > 100 | > 100 | – | – | – |
| Cc1ccc2c(=O)cc(-c3ccc(F)cc3)[nH]c2n1 | 42.2 | > 100 | – | 34.4 | 32.2 | > 100 | – | – | – | > 100 | – | > 100 | – | > 100 | – | > 100 | 86.5 | 49.6 | – | – |
| O=S1(=O)c2ccccc2NC(c2ccc3ccccc3c2)CC1c1ccccc1F (stereo unspecified) | – | > 100 | – | – | – | > 100 | – | > 100 | – | > 100 | – | > 100 | – | > 100 | – | > 100 | – | > 100 | – | – |
| NNC(=O)Nc1cccnc1 | – | > 100 | – | – | – | > 100 | – | > 100 | – | > 100 | – | > 100 | – | > 100 | – | > 100 | > 100 | > 100 | – | – |
| O=C1/C(=C/c2ccccc2)CN(C(=O)C(Cl)(Cl)Cl)C/C1=C\c1ccccc1 | – | 9.42 | – | 7.1 | – | 7.88 | – | 4.02 | – | 2.62 | – | 3.86 | – | 8.72 | – | 7.03 | – | 12.3 | – | – |
| CCCCCCCCCCCOc1ccc(C(=O)C(=O)c2ccc(OCCCCCCCCCCC)c(OCCCCCCCCCCC)c2)cc1OCCCCCCCCCCC | – | > 100 | – | – | – | > 100 | – | – | – | > 100 | – | > 100 | – | > 100 | – | > 100 | – | 95.7 | – | – |
| O=CC[C@H]1C(=O)C[C@@H]2CCC[C@@H]21 | – | > 100 | – | – | – | > 100 | – | > 100 | – | > 100 | – | > 100 | – | > 100 | – | – | > 100 | > 100 | – | – |
| C/C(CC(=O)CCC(=O)Nc1cccc(C(F)(F)F)c1)=N\NC(=O)NN | – | > 100 | – | – | – | > 100 | – | – | – | > 100 | – | > 100 | – | > 100 | – | > 100 | > 100 | > 100 | – | – |
| C=C(CN1CCN(c2ccc(Cl)cc2F)CC1)c1ccc(C(=O)Nc2ccccc2N)cc1 | 2.28 | > 100 | – | – | 2.29 | > 100 | 0.867 | 12.4 | 2.03 | – | 0.524 | > 100 | 3.53 | > 100 | 1.1 | > 25.1 | > 27.4 | > 46.1 | 11.4 | 1.57 |
| Cn1cc(C2=C(c3cn(C)c4ncccc34)C(=O)NC2=O)c2ccccc21 | 8.72 | > 25 | – | – | 9.93 | > 25 | 3.8 | 10.7 | 9.74 | > 25 | 8.41 | > 22.9 | 10.8 | > 25 | 5.68 | > 19.8 | > 22.9 | > 23.6 | 0.669 | 7.71 |
